Source: patent US20100267743A1, “3-(PHENOXYPYRROLIDIN-3-YL-METHYL)HETEROARYL, 3-(PHENYLPYRROLIDIN-3-YLMETHOXY)HETEROARYL, AND 3-(HETEROARYLPYRROLIDIN-3-YLMETHOXY)HETEROARYL COMPOUNDS” (priority 2009, published 2010)

Assays:
[1] = target: SERT (Homo sapiens, UniProt P31645); assay: hSERT radioligand binding assay (3H-citalopram); design: expressed in transfected cells; host or cells: HEK-293; details: hSERT membranes (HEK-293), 1.0 nM 3H-citalopram; for Ki: read-out: SERT pKi (converted)
Protocol: (§1) Membrane radioligand binding assays were used to measure inhibition of labeled ligand (^3H-citalopram or ^3H-nisoxetine or ^3H-WIN35428) binding to membranes prepared from cells expressing the respective human recombinant transporter (hSERT or hNET or hDAT) in order to determine the pKi values of test compounds at the transporters.
(§2) Recombinant human embryonic kidney (HEK-293) derived cell lines stably transfected with hSERT or hNET, respectively, were grown in DMEM medium supplemented with 10% dialyzed FBS (for hSERT) or FBS (for hNET), 100 μg/ml penicillin, 100 μg/ml streptomycin, 2 mM L-glutamine and 250 μg/ml of the aminoglycoside antibiotic G418, in a 5% CO2 humidified incubator at 37° C. When cultures reached 80% confluence, the cells were washed thoroughly in PBS (without […] and Mg^2+) and lifted with 5 mM EDTA in PBS. Cells were pelleted by centrifugation, resuspended in lysis buffer (10 mM Tris-HCl, pH7.5 containing 1 mM EDTA), homogenized, pelleted by centrifugation, then resuspended in 50 mM Tris-HCl, pH 7.5 and 10% sucrose at 4° C. Protein concentration of the membrane suspension was determined using a Bio-Rad Bradford Protein Assay kit. Membranes were snap frozen and stored at −80° C. Chinese hamster ovary membranes expressing hDAT (CHO-DAT) were purchased from PerkinElmer and stored at −80° C.
(§3) Binding assays were performed in a 96-well assay plate in a total volume of 200 μl assay buffer (50 mM Tris-HCl, 120 mM NaCl, 5 mM KCl, pH 7.4) with 0.5, 1, and 3 μg membrane protein, for SERT, NET and DAT, respectively.
(§4) Stock solutions (10 mM in DMSO) of test compound were prepared and serial dilutions made using Dilution Buffer (50 mM Tris-HCl, 120 mM NaCl, 5 mM KCl, pH 7.4, 0.1% BSA, 400 μM ascorbic acid).
(§5) Following a 60 minute incubation at 22° C. (or a period sufficient to reach equilibrium), the membranes were harvested by rapid filtration over a 96-well UniFilter GF/B plate, pretreated with 0.3% polyethyleneimine, and washed 6 times with 300 μl wash buffer (50 mM Tris-HCl, 0.9% NaCl, pH 7.5 at 4° C.). Plates were dried overnight at room temperature, ˜45 μl of MicroScint™-20 (Perkin Elmer) added and bound radioactivity quantitated via liquid scintillation spectroscopy. Inhibition curves and saturation isotherms were analyzed using GraphPad Prism Software package (GraphPad Software, Inc., San Diego, Calif.). IC50 values were generated from concentration response curves using the Sigmoidal Dose Response (variable slope) algorithm in Prism GraphPad. Kd and Bmax values for the radioligand were generated from saturation isotherms using the Saturation Binding Global Fit algorithm in Prism GraphPad. pKi (negative decadic logarithm of Ki) values for test compounds were calculated from the best-fit IC50 values, and the Kd value of the radioligand, using the Cheng-Prusoff equation (Cheng & Prusoff (1973) Biochem. Pharmacol. 22(23):3099-3108): Ki=IC50/(1+[L]/Kd), where [L]=concentration radioligand.

[2] = target: NET (Homo sapiens, UniProt P23975); assay: hNET radioligand binding assay (3H-nisoxetine); design: expressed in transfected cells; host or cells: HEK-293; details: hNET membranes (HEK-293), 1.0 nM 3H-nisoxetine; for Ki: read-out: NET pKi (converted)
Protocol: as §1, §2, §3, §4, §5

Sequence of NET (P23975 whole entry): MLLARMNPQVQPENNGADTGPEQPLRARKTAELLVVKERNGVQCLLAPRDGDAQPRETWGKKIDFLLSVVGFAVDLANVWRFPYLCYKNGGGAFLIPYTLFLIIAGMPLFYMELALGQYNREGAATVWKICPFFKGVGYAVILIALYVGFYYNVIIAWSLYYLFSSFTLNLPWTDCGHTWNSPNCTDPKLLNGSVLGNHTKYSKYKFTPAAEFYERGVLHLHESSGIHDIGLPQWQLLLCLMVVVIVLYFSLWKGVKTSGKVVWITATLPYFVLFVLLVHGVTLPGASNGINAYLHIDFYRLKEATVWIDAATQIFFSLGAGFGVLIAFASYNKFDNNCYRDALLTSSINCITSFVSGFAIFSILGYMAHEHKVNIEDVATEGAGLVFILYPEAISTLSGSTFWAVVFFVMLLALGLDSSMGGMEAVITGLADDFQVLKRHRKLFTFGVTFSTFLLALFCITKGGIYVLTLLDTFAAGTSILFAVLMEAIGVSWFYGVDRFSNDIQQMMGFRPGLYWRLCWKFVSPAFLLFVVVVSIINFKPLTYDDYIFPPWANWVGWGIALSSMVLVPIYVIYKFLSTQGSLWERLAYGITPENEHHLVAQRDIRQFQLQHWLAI
Sequence of SERT (P31645 whole entry): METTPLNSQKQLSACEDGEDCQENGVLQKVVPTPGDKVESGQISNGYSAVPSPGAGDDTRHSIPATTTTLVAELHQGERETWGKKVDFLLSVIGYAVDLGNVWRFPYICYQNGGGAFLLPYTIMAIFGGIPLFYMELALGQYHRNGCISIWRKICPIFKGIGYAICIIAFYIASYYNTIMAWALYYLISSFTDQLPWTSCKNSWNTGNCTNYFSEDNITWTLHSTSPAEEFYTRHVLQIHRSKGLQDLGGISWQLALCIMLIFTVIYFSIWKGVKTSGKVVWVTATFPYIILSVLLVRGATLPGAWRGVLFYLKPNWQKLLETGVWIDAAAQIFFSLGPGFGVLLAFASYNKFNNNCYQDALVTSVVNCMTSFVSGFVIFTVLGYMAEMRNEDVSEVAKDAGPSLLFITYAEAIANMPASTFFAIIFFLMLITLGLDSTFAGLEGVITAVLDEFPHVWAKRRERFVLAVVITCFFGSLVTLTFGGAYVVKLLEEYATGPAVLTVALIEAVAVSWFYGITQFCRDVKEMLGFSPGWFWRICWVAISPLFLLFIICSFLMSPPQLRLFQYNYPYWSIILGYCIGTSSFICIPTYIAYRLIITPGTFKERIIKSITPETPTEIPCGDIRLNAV

Ki [1] [nM]	Ki [2] [nM]	Structure (SMILES)	SERT pKi [1]	NET pKi [2]
≤ 10000	≤ 100	Fc1cc(F)c(F)c(OC(c2nccs2)C2CCNC2)c1F [Example 5-4, 2-[((S)-((S)-Pyrrolidin-3-yl-(2,3,5,6-tetrafluorophenoxy)methyl]thiazole]	–	–
≤ 100	≤ 100	Fc1cc(Cl)cc(F)c1OC(c1cncc(Cl)c1)C1CCNC1 [Example 2-25, 3-Chloro-5-[(R)-(4-chloro-2,6-difluorophenoxy)-(S)-pyrrolidin-3-yl-methy1]-pyridine]	–	–
–	–	Cc1cc(Cl)ccc1O[C@@H](c1cnccn1)[C@H]1CCNC1.O=C(O)C(F)(F)F [10-5]	≧7.0	≧7.0
–	–	COc1cc(Cl)c(F)cc1O[C@@H](c1ncco1)[C@H]1CCNC1.O=C(O)C(F)(F)F [6-40]	≧7.0	≧7.0
–	–	CCc1cc(F)ccc1O[C@@H](c1ncco1)[C@H]1CCNC1.O=C(O)C(F)(F)F [6-30]	≧7.0	≧7.0
–	–	Fc1ccc(F)c(O[C@@H](c2cnccn2)[C@H]2CCNC2)c1Cl.O=C(O)C(F)(F)F [10-3]	≧5.0	≧7.0
≤ 100	≤ 10000	Fc1cc(F)c(Cl)c(O[C@H](c2cncc(Cl)c2)[C@H]2CCNC2)c1Cl [Example 2-4, 3-Chloro-5-[(S)-(2,6-dichloro-3,5-difluorophenoxy)-(S)-pyrrolidin-3-yl-methyl]-pyridine]	–	–
–	–	Cc1cc(Cl)c(O[C@H](c2nccs2)[C@H]2CCNC2)c(Cl)c1 [Example 5-14]	≧7.0	≧5.0
≤ 100	≤ 10000	Clc1ccc(O[C@@H](c2ccccc2)C2CCNC2)cn1 (stereo partly shown) [15-22]	–	–
≤ 100	≤ 10000	Fc1ccc(O[C@@H](c2ccccc2)C2CCNC2)cn1 (stereo partly shown) [15-25]	–	–
–	–	COc1ccc(O[C@@H](c2ccccc2)[C@H]2CCNC2)cn1.O=C(O)C(F)(F)F [15-31]	≧7.0	≧5.0
–	–	Fc1ncccc1O[C@@H](c1ccccc1)[C@H]1CCNC1.O=C(O)C(F)(F)F [15-8]	≧7.0	≧7.0
–	–	Fc1ccc(O[C@@H](c2nccs2)[C@H]2CCNC2)cc1Cl [Example 5-30]	≧7.0	≧5.0
–	–	Fc1cc(F)c(F)c(O[C@@H](c2nccs2)[C@H]2CCNC2)c1F [Example 5-3]	≧5.0	≧5.0
≤ 100	≤ 100	Clc1ccc(O[C@@H](c2ccccc2)C2CCNC2)c(Cl)n1 (stereo partly shown) [15-1]	–	–
–	–	O=C(O)C(F)(F)F.c1ccc([C@H](Oc2cccnc2OC2CCCC2)[C@H]2CCNC2)cc1 [15-13]	≧7.0	≧7.0
–	–	Fc1cccnc1O[C@H](c1ccccc1)[C@@H]1CCNC1.O=C(O)C(F)(F)F [14-35]	≧5.0	≧7.0
≤ 100	≤ 10000	Fc1ccc(F)c(O[C@H](c2cncc(Cl)c2)[C@H]2CCNC2)c1Cl [Example 2-7, 3-Chloro-5-[(S)-(2-chloro-3,6-difluorophenoxy)-(S)-pyrrolidin-3-yl-methyl]-pyridine]	–	–
≤ 100	≤ 100	Clc1cc(Cl)cc(O[C@H](c2ccco2)[C@H]2CCNC2)c1 [Example 8-4, (S)-3-[(S)-(3,5-Dichlorophenoxy)furan-2-yl-methyl]pyrrolidine]	–	–
–	–	Cc1cccnc1OC(c1ccccc1)C1CCNC1 (stereo not shown) [14-37]	≧5.0	≧5.0
–	–	Cc1cc(Cl)ccc1O[C@@H](c1ncco1)[C@H]1CCNC1.O=C(O)C(F)(F)F [6-34]	≧7.0	≧7.0

Ki [1] [nM]	Ki [2] [nM]	Structure (SMILES)	SERT pKi [1]	NET pKi [2]
≤ 10000	≤ 10000	Cc1cc(Cl)ccc1O[C@@H](c1ccco1)[C@H]1CCNC1 [Example 8-2, (S)-3-[(R)-(4-Chloro-2-methylphenoxy)furan-2-yl-methyl]pyrrolidine]	–	–
–	–	Cc1ccc(OC(c2ccccc2)C2CCNC2)cn1 (stereo not shown) [15-28]	≧7.0	≧5.0
–	–	Cc1cc(Cl)cc(C)c1O[C@H](c1cncc(Cl)c1)[C@@H]1CCNC1 [Example 2-29, 3-Chloro-5-[(R)-(4-chloro-2,6-dimethylphenoxy)-(S)-pyrrolidin-3-yl-methy1]-pyridine]	≧7.0	≧5.0
–	–	Clc1ccccc1O[C@@H](c1ncco1)[C@H]1CCNC1 [6-19]	≧5.0	≧7.0
–	–	O=C(O)C(F)(F)F.c1ccc2cc(O[C@@H](c3ncco3)[C@H]3CCNC3)ccc2c1 [20-1]	≧7.0	≧7.0
≤ 100	≤ 100	Fc1cncc([C@H](Oc2c(F)cc(F)cc2F)[C@H]2CCNC2)c1 [Example 2-35, 3-Fluoro-5-[(R)-(S)-pyrrolidin-3-yl-(2,4,6-trifluorophenoxy)-methyl]pyridine]	–	–
–	–	Clc1cc(Cl)cc(O[C@@H](c2cncnc2)[C@H]2CCNC2)c1.O=C(O)C(F)(F)F [12-5]	≧7.0	≧5.0
≤ 100	≤ 10000	Fc1ccc(F)c(O[C@H](c2cnccn2)[C@H]2CCNC2)c1Cl [10-4]	–	–
–	–	CCc1cc(F)ccc1O[C@H](c1cncc(F)c1)[C@@H]1CCNC1 [Example 2-58, 3-[(R)-(2-Ethy1-4-fluorophenoxy)-(S)-pyrrolidin-3-yl-methyl]-5-fluoropyridine]	≧7.0	≧7.0
–	–	Cc1nc(O[C@@H](c2ccccc2)[C@H]2CCNC2)c(Br)cc1Br.O=C(O)C(F)(F)F [14-12]	≧7.0	≧7.0
–	–	Cc1ccccc1O[C@H](c1nccs1)[C@H]1CCNC1 [Example 5-25]	≧7.0	≧7.0
–	–	COc1ccccc1OC(c1cncnc1)C1CCNC1 (stereo not shown) [12-4]	≧5.0	≧7.0
–	–	Fc1cc(O[C@@H](c2ccccc2)[C@H]2CCNC2)cnc1F.O=C(O)C(F)(F)F [15-21]	≧5.0	≧7.0
≤ 100	≤ 100	Fc1cc(F)c(O[C@H](c2ccncc2)[C@H]2CCNC2)c(F)c1 [Example 3-2, 4-[(S)-(S)-Pyrrolidin-3-yl-(2,4,6-trifluorophenoxy)methyl]pyridine]	–	–
–	–	COc1ccccc1O[C@@H](c1cnccn1)[C@H]1CCNC1.O=C(O)C(F)(F)F [10-7]	≧5.0	≧7.0
≤ 100	≤ 100	Cc1cc(Cl)cnc1O[C@@H](c1ccccc1)[C@H]1CCNC1 [Example 13]	–	–
≤ 100	≤ 100	Clc1cc(Cl)cc(O[C@H](c2cncc(Cl)c2)[C@H]2CCNC2)c1 [Example 2-16, 3-Chloro-5-[(S)-(3,5-dichlorophenoxy)-(S)-pyrrolidin-3-yl-methyl]pyridine]	–	–
≤ 100	≤ 100	Fc1cc(F)c(O[C@H](c2cccnc2)[C@H]2CCNC2)c(F)c1 [Example 2-69, 3-[(S)-(S)-Pyrrolidin-3-yl-(2,4,6-trifluorophenoxy)methyl]pyridine]	–	–
–	–	Clc1cc(Cl)cc(O[C@H](c2nccs2)[C@H]2CCNC2)c1 [Example 5-27]	≧7.0	≧7.0
≤ 100	≤ 100	COc1ncccc1O[C@@H](c1ccccc1)C1CCNC1 (stereo partly shown) [15-16]	–	–
≤ 100	≤ 10000	Fc1ccc(F)c(O[C@H](c2cncnc2)[C@H]2CCNC2)c1Cl [12-2]	–	–

Structure (SMILES)	Ki [1] [nM]	Ki [2] [nM]	SERT pKi [1]	NET pKi [2]
Cc1cc(Cl)c(OC(c2nccs2)C2CCNC2)c(Cl)c1 [Example 5-13, 2-[(R)-(2,6-Dichloro-4-methylphenoxy)-((S)-pyrrolidin-3-yl-methyl]thiazole]	≤ 10000	≤ 10000	–	–
Fc1cc(F)c(OC(c2nccs2)C2CCNC2)c(F)c1 [Example 5-7, 2-[((S)-((S)-Pyrrolidin-3-yl-(2,4,6-trifluorophenoxy)methyl]thiazole]	≤ 100	≤ 100	–	–
